Consider four molecules from patent publication US8476253B2, “Amide derivative” (Daiichi Sankyo Company, Limited, priority 2009, dated 2013).

For test [1], the target named is T1, neurokinin NK1 receptor (Cavia porcellus, UniProt P30547).
T1 construct: Using healthy guinea pigs (body weight, 350 to 550 g; Hartley male guinea pigs); from tissue; host or cells: live anaesthetised Hartley male guinea pigs (airway, in vivo)
As to the kind of experiment: Effect of suppressing substance P-induced airway contraction (in vivo, intratracheal administration). The arrangement: species or system guinea pig. As to conditions: guinea pigs, intratracheal administration 60 minutes before 20 μg/kg i.v. SP, AUC of increase in airway pressure over 10 minutes; for ED50: guinea pig, read-out: ID50 (the source's name). Summed up: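 Anaesthetised, gallamine-paralysed, ventilated male Hartley guinea pigs; compound in 5% glucose given intratracheally 60 min before 20 μg/kg i.v. substance P. Airway-pressure increase AUC over 10 min, inhibition versus vehicle group, expressed as ID50.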

Test [2] concerns the target T2, human NK2 receptor (Homo sapiens, UniProt P21452).
T2 construct: expressed in transfected cells; host or cells: COS cells
T2 sequence (P21452 1-398): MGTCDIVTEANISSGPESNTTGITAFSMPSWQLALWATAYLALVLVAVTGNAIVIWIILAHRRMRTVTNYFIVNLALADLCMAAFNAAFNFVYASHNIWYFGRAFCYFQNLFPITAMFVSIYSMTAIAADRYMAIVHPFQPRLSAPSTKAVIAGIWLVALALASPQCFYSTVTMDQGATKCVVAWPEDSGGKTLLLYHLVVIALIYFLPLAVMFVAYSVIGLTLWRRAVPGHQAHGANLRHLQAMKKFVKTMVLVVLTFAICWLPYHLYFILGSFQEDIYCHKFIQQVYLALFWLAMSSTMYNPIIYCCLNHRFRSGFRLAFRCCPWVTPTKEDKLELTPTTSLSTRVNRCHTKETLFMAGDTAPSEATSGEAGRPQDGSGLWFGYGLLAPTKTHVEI
Kind of test: Test for binding to human NK2 receptor. Summed up: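 Radioligand binding with [^3H]SR 48968 on cryopreserved COS cells expressing human NK2 receptor (5.0×10^5 cells/mL), in 50 mM Tris-HCl pH 7.4 with BSA, MnCl2 and protease inhibitors. Bound label collected on PEI-treated GF/B filters, counted by liquid scintillation; Ki derived from IC50 and radioligand Kd.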

Test [3] deals with T3, substance P receptor (Cavia porcellus, UniProt P30547).
T3 construct: A preparation of a crude lung membrane sample was prepared; from tissue; host or cells: guinea-pig lung (crude membrane sample)
T3 sequence (P30547 whole entry): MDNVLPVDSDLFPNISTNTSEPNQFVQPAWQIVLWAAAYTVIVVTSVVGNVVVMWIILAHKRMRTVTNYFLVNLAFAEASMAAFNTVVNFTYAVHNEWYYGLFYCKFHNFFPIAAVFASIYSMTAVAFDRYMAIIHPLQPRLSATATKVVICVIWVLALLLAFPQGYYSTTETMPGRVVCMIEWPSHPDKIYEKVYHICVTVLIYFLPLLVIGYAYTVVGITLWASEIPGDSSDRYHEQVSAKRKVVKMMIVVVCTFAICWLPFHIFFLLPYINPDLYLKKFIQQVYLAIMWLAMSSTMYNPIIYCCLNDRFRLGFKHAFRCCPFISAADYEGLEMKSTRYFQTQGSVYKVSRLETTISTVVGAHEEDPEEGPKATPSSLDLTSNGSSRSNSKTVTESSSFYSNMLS
Kind of test: Test for binding to guinea-pig substance P receptor (crude lung membrane sample). As to conditions: crude guinea-pig lung membrane sample, [3H]substance P; Ki from IC50 and Kd; read-out: Ki. Here is the method:
A preparation of a crude lung membrane sample was prepared, and a test for binding of a test substance to the sample was performed according to the method described in EP0336230A2.
The binding effect of the test substance to a substance P receptor was calculated as an affinity (Ki) of the test substance for the substance P receptor from a 50% binding concentration (IC50) and an affinity (Kd) of [^3H]substance P for the substance P receptor.

The mark [4] stands for this setting: COS cells expressing human NK2 receptor, [3H]SR 48968 1 nM, Ki from IC50 and Kd, read-out: Ki.

pKi: −log10 of the molar value. Where a name gives a salt, the structure may show the parent alone. Read-outs that look alike come from different tables or passages of the source.

T1 sequence (P30547 whole entry): as above

For the molecule `CN(CCCCCC(=O)N(C)CCN1CCC(OC(=O)Nc2ccccc2-c2ccccc2)CC1)Cc1ccc(C(=O)N(C)CCCN(C)C(=O)CO[C@H]2Cc3ccccc3C23CCN(CC[C@@]2(c4ccc(F)cc4)CN(C(=O)c4cc(C(F)(F)F)cc(C(F)(F)F)c4)CO2)CC3)cc1` [Example 74, 1-{2-[{6-[{4-[{3-[({[(2S)-1′-{2-[(5R)-3-[3,5-Bis(trifluoromethyl)benzoyl]-5-(4-fluorophenyl)-1,3-oxazolidin-5-yl]ethyl}-2,3-dihydrospiro[indene-1,4′-piperidin]-2-yl]oxy}acetyl)(methyl)amino]propyl}(methyl)carbamoyl]benzyl}(methyl)amino]hexanoyl}(methyl)amino]ethyl}piperidin-4-yl biphenyl-2-ylcarbamate], the ED50 in test [1] was 0.0174 mg/kg. Further, the pKi in test [2] (setting [4]) is 9.85; in test [3] it was 9.06.

`CN(CCN1CCC(OC(=O)Nc2ccccc2-c2ccccc2)CC1)C(=O)CCCCCNc1cccc(C(=O)N(C)CCCN(C)C(=O)CO[C@H]2Cc3ccccc3C23CCN(CC[C@@]2(c4ccc(F)cc4)CN(C(=O)c4cc(C(F)(F)F)cc(C(F)(F)F)c4)CO2)CC3)c1` [Example 43, 1-(2-{[6-({3-[{3-[({[(2S)-1′-{2-[(5R)-3-[3,5-Bis(trifluoromethyl)benzoyl]-5-(4-fluorophenyl)-1,3-oxazolidin-5-yl]ethyl}-2,3-dihydrospiro[indene-1,4′-piperidin]-2-yl]oxy}acetyl)(methyl)amino]propyl}(methyl)carbamoyl]phenyl}amino)hexanoyl](methyl)amino}ethyl)piperidin-4-yl biphenyl-2-ylcarbamate trihydrochloride]: the ED50 in test [1] is 0.0766 mg/kg. The figures for the pKi in test [2] and in test [3] were 8.89 and 8.80, respectively.

Turning to `CN(CCN1CCC(OC(=O)Nc2ccccc2-c2ccccc2)CC1)C(=O)CCCCCNc1ccc(C(=O)N(C)CCCN(C)C(=O)CO[C@H]2Cc3ccccc3C23CCN(CC[C@@]2(c4ccc(F)cc4)CN(C(=O)c4cc(C(F)(F)F)cc(C(F)(F)F)c4)CO2)CC3)nc1` [Example 9, 1-(2-{[6-({6-[{3-[({[(2S)-1′-{2-[(5R)-3-[3,5-Bis(trifluoromethyl)benzoyl]-5-(4-fluorophenyl)-1,3-oxazolidin-5-yl]ethyl}-2,3-dihydrospiro[indene-1,4′-piperidin]-2-yl]oxy}acetyl)(methyl)amino]propyl}(methyl)carbamoyl]pyridin-3-yl}amino)hexanoyl](methyl)amino}ethyl)piperidin-4-yl biphenyl-2-ylcarbamate], in test [1], the ED50 turned out to be 0.0348 mg/kg. Also, the pKi is 9.18 in test [2] (setting [4]) and 8.68 in test [3].

Take `CN(CCN1CCC(OC(=O)Nc2ccccc2-c2ccccc2)CC1)C(=O)CCCCCNc1ccc(C(=O)N(C)CCN(C)C(=O)CO[C@H]2Cc3ccccc3C23CCN(CC[C@@]2(c4ccc(F)cc4)CN(C(=O)c4cc(C(F)(F)F)cc(C(F)(F)F)c4)CO2)CC3)cc1` [Example 15, 1-(2-{[6-({4-[{2-[({[(2S)-1-{2-[(5R)-3-[3,5-Bis(trifluoromethyl)benzoyl]-5-(4-fluorophenyl)-1,3-oxazolidin-5-yl]ethyl}-2,3-dihydrospiro[indene-1,4′-piperidin]-2-yl]oxy}acetyl)(methyl)amino]ethyl}(methyl)carbamoyl]phenyl}amino)hexanoyl](methyl)amino}ethyl)piperidin-4-yl biphenyl-2-ylcarbamate]: the ID50 in test [1] is 0.0224 mg/kg. Moreover, the pKi in test [2] (setting [4]) is 9.04; in test [3] it was 8.82.
